Measured values reported in ChEMBL document CHEMBL3217470, “Binding free energy calculations and biological testing of novel thiobarbiturates as inhibitors of the human NAD+dependent histone deacetylase Sirt2” (Medchemcomm, 2012).

Target: T1, NAD-dependent protein deacetylase sirtuin-2 (Homo sapiens, UniProt Q8IXJ6)
T1 sequence (Q8IXJ6 whole entry): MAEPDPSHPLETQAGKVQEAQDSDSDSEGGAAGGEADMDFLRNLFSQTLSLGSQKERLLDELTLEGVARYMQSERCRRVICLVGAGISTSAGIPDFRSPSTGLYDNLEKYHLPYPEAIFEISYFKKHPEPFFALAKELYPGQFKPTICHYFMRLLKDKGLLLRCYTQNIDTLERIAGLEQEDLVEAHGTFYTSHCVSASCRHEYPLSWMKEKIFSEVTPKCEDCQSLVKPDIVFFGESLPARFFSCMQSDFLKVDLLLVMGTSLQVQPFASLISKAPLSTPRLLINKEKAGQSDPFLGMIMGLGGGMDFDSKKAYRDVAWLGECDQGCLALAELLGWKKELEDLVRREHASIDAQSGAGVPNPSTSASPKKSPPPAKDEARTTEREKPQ
Assay: Inhibition of human recombinant Sirt2 using ZMAL as substrate after 4 hrs by fluorescent deacetylase assay

Row | SMILES | IC50 (read-out: IC50) [µM] | IC50 (read-out: pIC50 (converted)) [µM]
1 | O=C1NC(=S)NC(=O)C1=Cc1ccc(-c2ccc(Cl)cc2)o1 | 6.5 | 2.19
2 | O=C1NC(=S)NC(=O)C1=Cc1ccc(-c2ccc(Cl)c(Cl)c2)o1 | 1.5 | 
3 | C=CCN1C(=O)/C(=C/c2ccc(-c3cccc(Cl)c3Cl)o2)C(=O)NC1=S | 2.8 | 
4 | CC(C)Oc1ccc(C=C2C(=O)NC(=S)NC2=O)cc1 | 5.8 | 
5 | COc1ccc(CC2C(=O)NC(=S)NC2=O)cc1OCc1ccccc1 | 5.8 | 
6 | CCOc1ccc(C=C2C(=O)NC(=S)NC2=O)cc1CCc1ccccc1 | 4.9 | 
7 | O=C1NC(=S)NC(=O)C1=Cc1cc(OCc2ccc(Br)cc2)ccc1Cl | 1.8 | 
8 | O=C1NC(=S)NC(=O)C1=Cc1ccc(OCc2ccccc2)c(OCc2ccccc2)c1 | 3.9 | 
9 | O=C1NC(=S)NC(=O)C1=Cc1ccc(OCc2cccc3ccccc23)cc1 | 2.6 | 
10 | CC(=O)c1ccc(-c2ccc(C=C3C(=O)NC(=S)NC3=O)o2)cc1 | 5.5 | 
11 | O=C1NC(=S)NC(=O)C1=Cc1ccc(-c2ccc(C(=O)OCc3cccc(Cl)c3)cc2)o1 | 2.2 | 6.46
12 | O=C1NC(=S)NC(=O)C1=Cc1cn(-c2ccccc2)nc1-c1ccc(Cl)cc1 | 3.8 | 
13 | O=C1NC(=S)NC(=O)C1=Cc1ccc(Sc2ccccc2)o1 | 3.5 | 
14 | COC(=O)c1ccc(-c2ccc(C=C3C(=O)NC(=S)NC3=O)o2)cc1 | 5.7 | 
